Assay results: US12338351B2, “Dip molding emulsion, method of producing glove, and glove” (Midori Anzen Co., Ltd., priority 2018, dated 2025)

Experiments:
Format in all cases: physicochemical
[1] = Dissolution rate in water of epoxy crosslinking agent; settings: 25.0 g in 225 g water (25° C.), stirred 15 minutes, left to stand 1 hour
Description: 1. Precisely weigh 25.0 g of the epoxy crosslinking agent composition in a beaker, and add thereto 225 g of water (25° C.).
2. Vigorously stir and mix the resultant at room temperature (23° C.±2° C.) for 15 minutes, and leave the resulting mixture to stand for 1 hour.
3. Measure the volume (mL) of an oily matter precipitated on the bottom of the beaker.
The dissolution rate in water (%) was measured for the purpose of checking the solubility of each epoxy crosslinking agent in water. The dissolution rate in water can be measured by the following procedures.
1. Precisely weigh 25.0 g of the subject crosslinking agent composition in a beaker.
2. Add 225 g of 25° C. water, and vigorously stir the resultant at room temperature for 15 minutes using a magnetic stirrer.
3. After leaving the beaker to stand at room temperature for 1 hour, measure the volume (mL) of an oily matter precipitated on the bottom.

[2] = Pot life (working life) of dip molding composition; settings: XNBR NL120H(a)
From the text: The term “pot life” used herein represents a property of a dip molding composition, and a method of determining the “pot life” will be described below in the section of Examples. Specifically, the “pot life” refers to a period from the preparation of a dip molding composition to the formation of a cured film, in which period the use of the dip molding composition allows the resulting cured film to satisfy specific criteria.
In the present invention, the acceptable level of the pot life of the dip molding composition necessary for mass production is defined as a level at which a film produced using the dip molding composition that has been stored for at least 3 days satisfies a tensile strength of 20 MPa or higher and a fatigue durability of 240 minutes or longer, which are performances required as a glove.
The pot life is determined based on the time from the addition of an epoxy crosslinking agent in the preparation of a dip molding composition to adhesion of the dip molding composition to a glove forming mold. Moreover, the types of XNBRs and epoxy crosslinking agents used in dip molding compositions are shown in the respective Tables below.
The pot life of each dip molding composition was determined by the following procedures. The unit of the pot life is day. The dip molding compositions were prepared using the respective epoxy crosslinking agents and stored, and cured films were produced at one-day intervals. […] The number of days of storage until the last acceptable day was defined as the pot life. In this Experimental Example, experiments were conducted until day 7 as the longest duration of storage.

[3] = MIBK/water distribution ratio of epoxy crosslinking agent; settings: 5.0 g water, 5.0 g MIBK, 0.5 g crosslinking agent, 23±2° C., average of three
Description: Method of measuring the MIBK/water distribution ratio: in a test tube, 5.0 g of water, 5.0 g of methyl isobutyl ketone (MIBK) and 0.5 g of the epoxy crosslinking agent are precisely weighed and mixed with stirring at 23° C.±2° C. for 3 minutes, and the resulting mixture is centrifuged at 1.0×103 G for 10 minutes and thereby separated into an aqueous layer and an MIBK layer, after which the MIBK layer is fractionated and weighed to calculate the MIBK/water distribution ratio using the following equation: MIBK/water distribution ratio (%)=(Weight of separated MIBK layer (g)−Weight of MIBK before separation (g))/Weight of added crosslinking agent (g)×100 • this measurement is performed three times, and an average value thereof is defined as the MIBK/water distribution ratio.
First, about 5.0 g of water, about 5.0 g of MIBK and about 0.5 g of the epoxy crosslinking agent are precisely weighed and added to a test tube. The weight of MIBK and that of the epoxy crosslinking agent are defined as M (g) and E (g), respectively.
This mixture is thoroughly mixed with stirring for 3 minutes at a temperature of 23° C.±2° C. and subsequently separated into an aqueous layer and an MIBK layer by 10-minute centrifugation at 1.0×10^3 G. Thereafter, the weight of the MIBK layer is measured and defined as ML (g). MIBK/water distribution ratio (%)=(ML (g)−M (g))/E (g)×100
The methyl isobutyl ketone (MIBK)/water distribution ratio (%) was measured for the purpose of checking the amount of the movement of each epoxy crosslinking agent into an MIBK layer in an environment similar to the environment in a latex liquid.
3. Fractionate the thus separated MIBK layer into a disposable cup using a Pasteur pipette and measure the weight of the MIBK layer.
4. Calculate the MIBK/water distribution ratio using the following equation: MIBK/water distribution ratio (%)=(Weight (g) of separated MIBK layer−Weight (g) of MIBK before separation))/(Weight (g) of added crosslinking agent)×100
5. Perform this measurement three times, and calculate the average value thereof as the MIBK/water distribution ratio.
It is noted here that a vortex mixer (VORTEX-GENIE 2 Mixer, standard model; manufactured by Scientific Industries, Inc.) was used for the stirring in the procedure 2.

[4] = 0.5 parts by weight epoxy crosslinking agent, fatigue durability 240 minutes acceptable line, experiments until day 7

Molecule	Dissolution rate in water [1]	MIBK/water distribution ratio [3]	also measured
C(OCC1CO1)C(COCC1CO1)OCC1CO1 (stereo not drawn) [epoxy crosslinking agent H, glycerol triglycidyl ether]	99%	28%	Pot life [2, 4]: 2 days; Pot life ([2]; added amount of epoxy crosslinking agent increased to 1.0 part by weight): 3 days
CC(COCC1CO1)OCC1CO1 (stereo not drawn) [epoxy crosslinking agent M, propylene glycol diglycidyl ether]	75%	57%	–
diglycerol triglycidyl ether [epoxy crosslinking agent G]	88%	36%	Pot life [2, 4]: 3 days
polyethylene glycol diglycidyl ether [epoxy crosslinking agent N]	99%	4%	–
polyglycerol polyglycidyl ether [epoxy crosslinking agent K]	100%	–	MIBK/water distribution ratio ([3]; listed as K): 6%
polyglycerol polyglycidyl ether [epoxy crosslinking agent L]	–	–	MIBK/water distribution ratio ([3]; listed as L): −10%
sorbitol polyglycidyl ether [epoxy crosslinking agent I]	–	–	Dissolution rate in water ([1]; listed as I): 78%; MIBK/water distribution ratio ([3]; listed as I): 26%
sorbitol polyglycidyl ether [epoxy crosslinking agent J]	–	–	Dissolution rate in water ([1]; listed as J): 94%; MIBK/water distribution ratio ([3]; listed as J): 23%
